Literature values in US9456982B2, “Solid formulations of niacin to counteract cold extremities” (BE-WARM LLC, priority 2014, dated 2016).

Settings: therapeutic niacin doses; sometimes longer

In the case of `O=C(O)c1cccnc1` [niacin, pyridine-3-carboxylic acid], the “duration of SVFS flush” value is listed as 15 to 30 min.
